Legend:
[1] = biological target: T1, casein kinase 2 alpha (CK2α) (Homo sapiens, UniProt P68400); assay: CK2α kinase assay using peptide phosphoacceptor (substrate phosphorylation, SPA); format: biochemical; conditions: purified CK2α (co-expressed with CK2β), 0.001 mM peptide, 0.001 mM ATP, 3 hours room temperature; read-out: pIC50 values (converted)
T1 construct: made in house; host or cells: baculovirus-based vectors in Sf21 insect cells
Experimental: Compounds of the present invention were also tested for casein kinase 2 alpha (CK2α) inhibitory activity in substrate phosphorylation assays. This assay examines the ability of small molecule organic compounds to inhibit the serine phosphorylation of a peptide substrate.
Kinase Assays Using Peptide Phosphoacceptor
The biotinylated peptide (Biotin—GGRRRDDDS*DDD-OH), was purchased from Biosource International, Inc. (Camarillo, Calif.), and its purity was determined by HPLC. Phosphorylation of serine (S*) occurs under assay conditions described. The calculated molecular mass of the peptide was 1713 dalton. Solid sample was dissolved at 10 mM in DMSO, aliquoted, and stored at −20° C. until use.
Recombinant expression of casein kinase 2 alpha (CK2α), using baculovirus-based vectors in Sf21 insect cells and purified by P11 phosphocellulose (Whatman) chromatography of the clarified cell lysate, produced constitutively active enzyme. CK2α was co-expressed with CK2β. Samples were stored at −20° C. in the presence of 50% glycerol until use.
Kinase Assay of Purified CK2α:
Assays were performed in 384 well plates (Costar, Catalog No. 3705). Compounds first were delivered to the plate in one microliter DMSO, followed by reaction mix (in 40 ul volume), which contained in final concentrations 25 mM Hepes buffer, pH 7.4; […]; 150 mM NaCl; 1 mM β-mercapto ethanol; 0.0025% Tween-20; 0.001 mM ATP, 0.1 μCi of [γ-33P]ATP; purified CK2α (6 ng/assay), and 0.001 mM peptide. […]
The data for dose responses were plotted as % Inhibition, calculated with the data reduction formula 100*(1−[(U1−C2)/(C1−C2)]), versus concentration of compound, where U is the unknown value, C1 is the average control value obtained for DMSO, and C2 is the average control value obtained for 0.05M EDTA Data were fitted to the curve described by: y=((Vmax*x)/(K+x)) where Vmax is the upper asymptote and K is the IC50. The results for each compound were recorded as pIC50 calculated as follows: pIC50=−Log 10(K) in Table 2.

hYAK3 = biological target: T2, hYAK3 (Homo sapiens, UniProt O43781); assay: YAK3 scintillation proximity assay using Ser164 of myelin basic protein as the phosphoacceptor; format: biochemical; conditions: purified GST-hYak3-His6, 4 μM Ser164 peptide, 0.001 mM ATP, 2 hours room temperature; read-out: pIC50 values (converted)
T2 construct: GST (N); His6 (C); made in house; host or cells: baculovirus expression system in Sf9 cells
T2 sequence (O43781 124-526): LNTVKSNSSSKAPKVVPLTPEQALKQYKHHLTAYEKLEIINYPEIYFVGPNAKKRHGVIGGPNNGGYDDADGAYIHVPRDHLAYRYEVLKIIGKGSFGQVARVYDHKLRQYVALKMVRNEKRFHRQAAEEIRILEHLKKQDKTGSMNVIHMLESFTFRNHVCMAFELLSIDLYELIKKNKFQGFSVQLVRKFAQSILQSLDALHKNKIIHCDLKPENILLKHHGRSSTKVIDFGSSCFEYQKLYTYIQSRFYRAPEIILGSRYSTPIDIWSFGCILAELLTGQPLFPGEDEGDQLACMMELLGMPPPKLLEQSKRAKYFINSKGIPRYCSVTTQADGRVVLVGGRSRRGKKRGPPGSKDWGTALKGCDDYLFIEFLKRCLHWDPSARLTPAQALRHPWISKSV
Experimental: YAK3 Scintillation Proximity Assays Using Ser164 of Myelin Basic Protein as the Phosphoacceptor
The source of Ser164 substrate peptide The biotinylated Ser164, S164A peptide(Biotinyl—LGGRDSRAGS*PMARR—OH), sequence derived from the C-terminus of bovine myelin basic protein (MBP) with Ser162 substituted as Ala162, was purchased from California Peptide Research Inc. (Napa, Calif.), and its purity was determined by HPLC. Phosphorylation occurs at position 164 (marked S* above). The calculated molecular mass of the peptide was 2166 dalton. Solid sample was dissolved at 10 mM in DMSO, aliquoted, and stored at −20° C. until use.
The source of hYAK3 enzyme: Glutathione-S-Transferase (GST)-hYak3-His6 containing amino acid residues 124-526 of human YAK3 (aa 124-526 of SEQ ID NO 2. in U.S. Pat. No. 6,323,318) was purified from baculovirus expression system in Sf9 cells using Glutathione Sepharose 4B column chromatography followed by Ni-NTA-Agarose column chromatography. Purity greater than 65% typically was achieved. Samples, in 50 mM Tris, 150 mM NaCl, 10% glycerol, 0.1% Triton, 250 mM imidazole, 10 mM β-mercapto ethanol, pH 8.0. were stored at −80° C. until use.
Kinase assay of purified hYAK3: Assays were performed in 96 well (Costar, Catalog No. 3789) or 384 well plates (Costar, Catalog No. 3705). […] Compounds, titrated in DMSO, were evaluated at concentrations ranging from 50 μM to 0.5 nM. […]

T1 sequence (P68400 whole entry): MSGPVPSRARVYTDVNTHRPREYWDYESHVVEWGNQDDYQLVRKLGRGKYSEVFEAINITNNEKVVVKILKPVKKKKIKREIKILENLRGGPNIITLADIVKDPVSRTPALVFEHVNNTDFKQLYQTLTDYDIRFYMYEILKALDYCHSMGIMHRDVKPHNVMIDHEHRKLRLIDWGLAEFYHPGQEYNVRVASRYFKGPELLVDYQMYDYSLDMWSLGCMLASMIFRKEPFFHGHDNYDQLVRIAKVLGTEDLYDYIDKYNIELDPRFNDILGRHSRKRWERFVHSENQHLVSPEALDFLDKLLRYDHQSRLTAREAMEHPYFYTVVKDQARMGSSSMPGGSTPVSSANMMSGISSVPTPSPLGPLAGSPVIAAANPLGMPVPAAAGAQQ
T1 sequence (P67870 whole entry partner): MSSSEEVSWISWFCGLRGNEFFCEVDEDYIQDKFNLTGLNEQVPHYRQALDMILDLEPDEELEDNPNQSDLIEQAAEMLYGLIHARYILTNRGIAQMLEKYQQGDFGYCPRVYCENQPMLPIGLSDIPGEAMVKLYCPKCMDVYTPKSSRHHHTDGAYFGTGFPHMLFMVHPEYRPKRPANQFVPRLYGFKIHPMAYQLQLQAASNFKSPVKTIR

IC50 [1] [nM]	IC50 (hYAK3) [nM]	Structure (SMILES)
102 to 1000	–	COc1ccc(-c2nc(Nc3cc(S(=O)(=O)O)ccc3Cl)c(C(=O)O)s2)cc1 [Ieg, 4-(2-Chloro-5-sulfophenylamino)-2-(4-methoxyphenyl) thiazole-5-carboxylic acid]
10.2 to 100	–	COc1ccc(-c2nc(Nc3cc(C(N)=O)ccc3Cl)c(C(=O)O)s2)cc1 [Ief, 4-(5-Carbamoyl-2-chlorophenylamino)-2-(4-methoxyphenyl)thiazole-5-carboxylic acid]

More lines, now with the values behind:

Structure (SMILES)	IC50 [1] [nM]	IC50 (hYAK3) [nM]
NC(=O)c1sc(-c2ccc3c(c2)CCO3)nc1Nc1ccccc1Cl [Ieb, 4-(2-Chlorophenylamino)-2-(2,3-dihydrobenzofuran-5-yl) thiazole-5-carboxylic acid amide]	1020 to 10000	–
COc1cccc(-c2nc(Nc3ccccc3F)c(C(=O)O)s2)c1 [Ibf, 5-Carboxyl-4-(2-fluoroanilino)-2-(3-methoxyphenyl)thiazole]	–	1020 to 10000
COc1ccc(-c2nc(Nc3ccccc3C(F)(F)F)c(C(=O)O)s2)cc1 [Ibd, 5-Carboxyl-2-(4-methoxyphenyl)-4-(2-trifluoromethylanilino)thiazole]	–	102 to 1000

Source: patent publication US20090270456A1, “Novel chemical compounds” (priority 2004, published 2009)
